{"source": "BindingDB's records for patent US9868748", "about": "(Vitae Pharmaceuticals, 2018)", "target": "T1, Nuclear receptor ROR-gamma (Homo sapiens, UniProt P51449)", "T1 sequence (P51449 whole entry)": "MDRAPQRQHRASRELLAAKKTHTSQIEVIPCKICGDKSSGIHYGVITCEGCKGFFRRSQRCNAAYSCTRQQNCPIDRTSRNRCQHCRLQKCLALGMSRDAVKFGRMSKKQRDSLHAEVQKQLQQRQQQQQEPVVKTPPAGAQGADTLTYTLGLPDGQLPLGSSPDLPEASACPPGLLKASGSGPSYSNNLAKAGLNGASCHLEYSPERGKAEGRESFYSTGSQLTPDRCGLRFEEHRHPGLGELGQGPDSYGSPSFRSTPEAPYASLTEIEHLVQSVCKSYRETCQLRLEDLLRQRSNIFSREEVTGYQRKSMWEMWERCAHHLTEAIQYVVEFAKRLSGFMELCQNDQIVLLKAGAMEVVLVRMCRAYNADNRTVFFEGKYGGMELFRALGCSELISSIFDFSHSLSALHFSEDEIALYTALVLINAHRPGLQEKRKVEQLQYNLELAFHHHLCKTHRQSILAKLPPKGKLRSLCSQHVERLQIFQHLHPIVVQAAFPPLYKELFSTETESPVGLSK", "experiment": "Binding Assay", "method": "Compounds of the present invention were tested for ability to bind to RORγ in a cell-free competition assay with commercially available radio-ligand (RL), 25-hydroxy [26,27-3H] cholesterol (PerkinElmer, Cat. # NET674250UC), for a ligand binding site on a recombinant RORγ Ligand Binding Domain (LBD) protein expressed as a 6×His-Glutathione-S-Transferase (GST) fusion ( 6×His disclosed as SEQ ID NO: 2). The assay was performed in 96-well SPA plates (PerkinElmer, Cat. #1450-401) in 50 mM HEPES buffer, pH 7.4, containing 150 mM NaCl, 5 mM MgCl2, 10% (v/v) glycerol, 2 mM CHAPS, 0.5 mM β-octylglucopyranoside and 5 mM DTT. Tested compounds were dissolved in DMSO, and semi-log (3.162×) serial dilutions of the compounds were prepared in the same solvent. Two μL of the DMSO solutions were mixed with 28 μL of 8.6 nM 25-hydroxy [26,27-3H] cholesterol and 50 μL of 24 nM RORγ LBD. […] SPA signal for tritium beta radiation was registered on PerkinElmer Microbeta plate reader. Percent inhibition values were calculated based on the high signal obtained with DMSO control and the low signal observed with 10 μM standard RORγ inverse agonist T0901317 (SigmaAldrich, Cat. # T2320). The percent inhibition vs. concentration data were fit into a four-parameter model, and […] values were calculated from the fit as the concentrations corresponding to the inflection points on the dose-response curves.", "data": [{"smiles": "CCS(=O)(=O)c1ccc(CC(=O)Nc2nc3c(s2)CN(CC2CC[C@@H](C(F)(F)F)N(C)C2)[C@H]3C(C)C)cc1", "note": "(stereo partly specified) [US9868748, I-A30]", "values": [{"measurement": "Ki", "result": "< 100", "unit": "nM"}]}]}
